{
  "source": "patent US6552066B1",
  "about": "“Protein tyrosine kinase inhibitors for treating osteoarthritis” (priority 1995, dated 2003)",
  "key": {"[1]": {"test_system": "IL-1 induced release of 35S-labelled proteoglycans from chondrocytes", "assay": "Chondrocyte cell culture matrix breakdown assay (IL-1 induced 35S release)", "assay_type": "cell-based, calf (bovine)", "conditions": "for inhibition at 50 µM / inhibition at 10 µM: Bos taurus, Chondrocyte", "protocol": "A cell culture assay was used to measure the ability of the test compounds to slow the degradation of the extracellular matrix by a metalloproteinase. This assay measured the amount ^35S released from chondrocytes grown in a media with ^35S labeled sodium sulfate. The cell culture assay was carried out as follows:\nTwo or three 1 to 3 week old calf joints were obtained from an abattoir. The proximal end of the shank was about 4-5′ long to facilitate immobilization in the holder. The joint was kept cool and transported on ice. The exterior of the intact joints was washed well with a suitable anti-microbial soap, rinsed clean with warm water, rinsed in betadine and then finally rinsed with 70% ethanol. Up to this point all steps were done in a manner to ensure that the joint was kept as clean as possible. All subsequent steps were performed in a sterile field (i.e., in a Edgeguard laminar flow tissue culture hood). The joint was immobilized and the synovial fluid was aspirated with a needle and syringe. The joint was then cut open to expose the articular cartilage using a #21 scalpel. Using locking hemostats, forceps and a #15 scalpel, the cartilage was excised in full thickness pieces. Care was taken not to cut too deep into the subchondral bone to prevent bleeding. The cartilage pieces were placed into a 50 mL centrifuge tube containing 25 mL of Delbecco's phosphate buffered saline (D-PBS) supplemented with 1% antibiotic solution (penicillin, streptomycin and fungizone; GIBCO/BRL). The slices from each joint were then placed into separate 50 mL centrifuge tubes. The D-PBS was decanted and replaced with 25 mL of fresh D-PBS supplemented with antibiotics and subsequently agitated gently.\nThe cartilage pieces were transferred to a fresh 50 mL centrifuge tube and rinsed once more with 25 mL of D-PBS minus antibiotics. An enzymatic digestion solution containing 1 mg/mL of hyaluronidase in serum-free 1:1 DMEM/Ham's F-12 (DMEM/F12) was prepared. This solution was filter sterilized with 0.22 mm Milex-GV filter and kept on ice until ready to use. The cartilage pieces were digested with approximately 5 mL of hyaluronidase solution per joint for 2×15 minutes at 37° C. in the 50 mL centrifuge tube with gentle agitation at the 15 minute mark. This procedure removed residual hyaluronic acid from the surface of the chips. The enzymatic digestion solution was then aspirated and the cartilage pieces were rinsed with 25 mL of D-PBS.\nA second enzymatic digestion solution containing 2.5 mg trypsin and 2 mg collagenase P per mL serum-free DMEM/F12 was prepared. This solution was also filter sterilized with a 0.22 mm Millex-GV filter and kept on ice until ready to use. The cartilage pieces were digested with approximately 5 mL of trypsin: collagenase solution per joint for 2×15 minutes at 37° C. in the 50 mL centrifuge tube with gentle agitation at the 15 minute mark. This procedure removed the synovial fibroblasts and any adherent connective tissue from the surface of the chips. The enzymatic digestion solution was then carefully removed and saved and the cartilage pieces were rinsed with 25 mL of D-PBS.\nA third enzymatic solution containing 2 mgs of collagenase P (BMB) per mL serum-free DMEM/F12 was prepared. This solution was filter sterilized with a 0.22 mm Millex-GV filter and kept on ice until ready to use. The pre-digested cartilage pieces were finally digested with approximately 20 mL of enzymatic digestion solution per joint for 5-6 hours at 37° C. in a Bellco stirring digestion flask, at which point the cartilage was fully digested away.\nThe enzymes in the synovial fibroblast and chondrocyte digest were neutralized by addition of an equal volume of DMEM/F12 supplemented with 5% fetal bovine serum. Fibroblasts were plated in DMEM at a cellular density of 6.6×10^3 cells per cm^2. […]"}, "[2]": {"test_system": "IL-1-induced aggrecan degradation", "assay": "Aggrecan degradation in IL-1-stimulated chondrocytes, 2-B-6 antibody immunoblot", "assay_type": "cell-based, bovine", "conditions": "for intensity of staining (total amount of PG fragments), 2-B-6: relative to PKA, PKC and calmodulin-dependent kinase inhibitor samples", "protocol": "Primary bovine articular chondrocytes from calf adio-carpal joints were isolated and cultured as above in Example 1, up to and including the addition of the following protein kinase inhibitors: 1) Protein kinase A (PKA) inhibitors; 0.5 μM H88 (Seikagaku Corp.), 0.5 μM H89 (Seikagaku Corp.); 2) Protein kinase C (PKC) inhibitors; 0.5 μM Calphostin C (Calbiochem), 1.0 μM Chelerythrine (Calbiochem); 3) CA^2+/Calmodulin Kinase II inhibitor; 5.0 μM KN93 (Seikagaku Corp.); 4) Protein tyrosine kinase (PTK) inhibitors; 50 μM Genistein (Calbiochem), 10 μM Herbimycin A (Calbiochem). After the 24 hour IL-1α incubation, the media of each sample was measured, and collected on ice in the presence of the protease inhibitors EGTA (5 mM), Pefaloc (1 mM), pepstatin (1 μg/ml), and NEM (5 mM). Media were concentrated approximately 40 fold using a Centriprep-10 ultrafiltration device (Amicon).\nProteoglycans contained within the media were deglycosylated by incubations with chondroitinase ABC, keratinase, and keratinase II following the procedure of Sandy et al. J Biol Chem (1991) 266:8683-8685 and Sandy et al. J. Clin Invest (1992) 89:1512-1516. Samples of deglycosylated media were subjected to 4-15% gradient SDS-PAGE and transferred to nitrocellulose membranes (2 ml-worth and 6 ml-worth of media were used for 2-B-6 and BC-3 immunoblotting, respectively.) The membranes were blocked with 1% nonfat dry milk and 1% BSA, and then incubated in either the BC-3 or 2-B-6 primary monoclonal antibody for 1 hour. The 2-B-6 antibody detects chondroitin sulfate stubs on chondroitinase-treated proteoglycans (both intact and degradation products. BC-3 antibody detects “ARGSV . . . ,” the new N-terminus (“neoepitope”) resulting from cleavage of aggrecan interglobular domain at Glu^373/ALA^374 by aggrecanase. It is of note to mention that the BC-3 and 2-B-6 antibodies were of low sensitivity. Following 3 washes, membranes were incubated in either alkaline phosphatase-conjugated goat anti-mouse (for the 2-B-6 blot) or biotinylated goat anti-mouse (for the BC-3 blot); followed by alkaline phosphatase-conjugated streptavidin/biotin complex). After washing 3 times, immunoreactive proteins were detected using NBT/BCIP (Sigma) colorimetric substrate.\nThe 2-B-6 antibody detected intact aggrecan (the uppermost band) and several aggrecan degradation products, along with decorin and biglycan (50K doublet), in the IL-1-treated media samples. […] The bands in the IL-1 sample that are seen at 230K, 200K, 130K and 100K have been previously identified by sequence analysis to result from IL-1-induced “aggrecanase” cleavage.\nA repeat of the Western immunoblotting experiment using 2-B-6 antibodies was performed. Furthermore, additional inhibitors from four enzyme families were examined: 1) Protein tyrosine kinase (PTK) inhibitors; 1 μM Tryphostin AG 1296 (Calbiochem), 50 μM Tyrphostin A25 (AG 82) (Calbiochem), 50 μM Tyrphostin AG 126 (Calbiochem), 50 μM Tyrphostin B56 (AG 556) (Calbiochem), 20 μM DAPH (Calbiochem); 2) Guanylate cyclase inhibitor; 10 μM LY-83583 (Calbiochem); 3) Casein kinase I inhibitor; 20 μM CKI-7 (Seikagaku Corp.); and 4) Protein kinase G (PKG) and PKA inhibitor; 5.0 μM H89."}},
  "note": "Where two headings read alike, the source gives them in different places.",
  "data": [
    {"smiles": "O=C1NC(=O)c2cc(Nc3ccccc3)c(Nc3ccccc3)cc21", "note": "[DAPH, 4,5-dianilinophthalimide]", "values": [
      {"measurement": "percent inhibition of IL-1 induced 35S release", "setting": "[1]; 2 μM, repeated assay", "result": "no inhibition"},
      {"measurement": "percent inhibition of IL-1 induced 35S release", "setting": "[1]; 20 μM, repeated assay", "result": "no inhibition"},
      {"measurement": "inhibition of IL-1-induced aggrecan degradation, 2-B-6", "setting": "[2]; 20 μM, repeat experiment", "result": "moderately strong inhibition"}
    ]},
    {"smiles": "O=c1c(-c2ccc(O)cc2)coc2cc(O)cc(O)c12", "note": "[Genistein]", "values": [
      {"measurement": "inhibition at 50 µM", "setting": "[1]; 50 μM, first experiment, 1 ng/ml rhIL-1α, read-out: inhibitory effect on IL-1 induced release of 35S-labelled proteoglycans", "result": "75 to 100", "unit": "%"},
      {"measurement": "inhibition at 50 µM", "setting": "[1]; 50 μM, repeated assay, read-out: percent inhibition of IL-1 induced 35S release", "result": 58, "unit": "%"},
      {"measurement": "level of the 230K aggrecan degradation product, 2-B-6", "setting": "[2]; 50 μM", "result": "significantly reduce"},
      {"measurement": "levels of the uppermost band (intact aggrecan), 2-B-6", "setting": "[2]; 50 μM", "result": "increased"},
      {"measurement": "intensity of staining (total amount of PG fragments), 2-B-6", "setting": "[2]; 50 μM", "result": "reduced"},
      {"measurement": "inhibition of IL-1-induced aggrecan degradation, 2-B-6", "setting": "[2]; 50 μM, repeat experiment", "result": "partial inhibition"}
    ]},
    {"smiles": "CO[C@H]1[C@@H](OC)C[C@H](C)[C@@H](OC)C2=CC(=O)C=C(NC(=O)/C(C)=C/C=C\\[C@H](OC)[C@@H](OC(N)=O)/C(C)=C/[C@@H]1C)C2=O", "note": "[Herbimycin A]", "values": [
      {"measurement": "inhibition at 10 µM", "setting": "[1]; first experiment, 1 ng/ml rhIL-1α, read-out: inhibitory effect on IL-1 induced release of 35S-labelled proteoglycans", "result": "75 to 100", "unit": "%"},
      {"measurement": "inhibition at 10 µM", "setting": "[1]; repeated assay, read-out: percent inhibition of IL-1 induced 35S release", "result": 89, "unit": "%"},
      {"measurement": "level of the 230K aggrecan degradation product, 2-B-6", "setting": "[2]; 10 μM", "result": "significantly reduce"},
      {"measurement": "levels of the uppermost band (intact aggrecan), 2-B-6", "setting": "[2]; 10 μM", "result": "increased"},
      {"measurement": "intensity of staining (total amount of PG fragments), 2-B-6", "setting": "[2]; 10 μM", "result": "reduced"},
      {"measurement": "inhibition at 10 µM", "setting": "[2]; Bos taurus, Chondrocyte, 10 μM, repeat experiment", "result": "~100", "unit": "%"}
    ]},
    {"smiles": "N#CC(C#N)=Cc1cc(O)c(O)c(O)c1", "note": "[Tyrphostin AG 82]", "values": [
      {"measurement": "percent inhibition of IL-1 induced 35S release", "setting": "[1]; 50 μM, repeated assay", "result": 40, "unit": "%"},
      {"measurement": "inhibition of IL-1-induced aggrecan degradation, 2-B-6", "setting": "[2]; 50 μM, repeat experiment", "result": "moderate inhibition"}
    ]},
    {"smiles": "N#CC(C#N)=Cc1ccc([N+](=O)[O-])c(O)c1", "note": "[Tyrphostin AG 126]", "values": [
      {"measurement": "percent inhibition of IL-1 induced 35S release", "setting": "[1]; 50 μM, repeated assay", "result": "no inhibition"},
      {"measurement": "inhibition of IL-1-induced aggrecan degradation, 2-B-6", "setting": "[2]; 50 μM, repeat experiment", "result": "no inhibitory effect"}
    ]},
    {"smiles": "N#C/C(=C\\c1ccc(O)c(O)c1)C(=O)NCCCCc1ccccc1", "note": "[Tyrphostin AG 556]", "values": [
      {"measurement": "percent inhibition of IL-1 induced 35S release", "setting": "[1]; 50 μM, repeated assay", "result": 100, "unit": "%"},
      {"measurement": "inhibition of IL-1-induced aggrecan degradation, 2-B-6", "setting": "[2]; 50 μM, repeat experiment", "result": 100, "unit": "%"}
    ]}
  ]
}
